Reference: ChEMBL document CHEMBL5252650, “An ATG4B inhibitor blocks autophagy and sensitizes Sorafenib inhibition activities in HCC tumor cells” (Bioorg Med Chem, 2023)
Activity calls are given as the source filed them. The rule behind the calls is not given here.

Tests used:
Cysteine protease ATG4B [1] = target: T1, Cysteine protease ATG4B (Homo sapiens, UniProt Q9Y4P1); experiment: Binding affinity to N-terminal His6/SUMO-tagged full length human ATG4B expressed in Escherichia coli BL21 (DE3) cells by SPR assay
T1 sequence (Q9Y4P1 whole entry): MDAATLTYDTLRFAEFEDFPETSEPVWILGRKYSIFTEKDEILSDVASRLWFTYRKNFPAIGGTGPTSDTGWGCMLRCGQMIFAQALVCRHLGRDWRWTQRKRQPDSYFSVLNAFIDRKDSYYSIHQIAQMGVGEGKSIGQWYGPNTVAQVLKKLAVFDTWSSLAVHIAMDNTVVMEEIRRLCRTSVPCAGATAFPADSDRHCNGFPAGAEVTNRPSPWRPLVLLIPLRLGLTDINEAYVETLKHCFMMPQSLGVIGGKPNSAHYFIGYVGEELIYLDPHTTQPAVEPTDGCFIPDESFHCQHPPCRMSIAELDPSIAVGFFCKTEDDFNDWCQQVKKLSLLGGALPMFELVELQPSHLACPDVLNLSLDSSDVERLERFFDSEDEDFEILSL

[2] = target: T2, Cysteine protease ATG4B (Homo sapiens) (UniProt Q9Y4P1); experiment: Binding affinity to N-terminal His6/SUMO-tagged full length human ATG4B expressed in Escherichia coli BL21 (DE3) cells at 100 uM by CPMG spectroscopy
T2 sequence (whole entry): T1 sequence (Q9Y4P1 whole entry)

[3] = Inhibition of sorafenib-induced autophagic flux in human SK-HEP1 cells assessed as fold increase in p62 protein expression at 20 uM incubated for 24 hrs in presence of 10 uM sorafenib by immunoblot analysis relative to control; format: functional
Huh-7 [4] = experiment: Potentiation of sorafenib-induced antiproliferative activity against human Huh-7 cells assessed as inhibition of cell proliferation at 20 uM incubated for 5 days in presence of sorafenib by CTG assay; format: functional, cell-based; conditions: time 5.0 day
[5] = Inhibition of sorafenib-induced autophagic flux in human SK-HEP1 cells assessed as fold increase in LC3B-II protein expression at 20 uM incubated for 24 hrs in presence of 10 uM sorafenib by immunoblot analysis relative to control; format: functional
Huh-7 [6] = experiment: Inhibition of autophagy in human Huh-7 cells assessed as reduction in LC3B-I protein expression at 10 to 20 uM incubated for 24 hrs by immunoblot analysis; format: functional, cell-based; conditions: dose 10-20 µM
SK-HEP1 [7] = experiment: Inhibition of autophagy in human SK-HEP1 cells assessed as fold increase in LC3B-II protein expression at 20 uM incubated for 24 hrs by immunoblot analysis relative to control; format: functional
[8] = Inhibition of sorafenib-induced autophagic flux in human SK-HEP1 cells assessed as fold increase in p62 protein expression at 20 uM incubated for 24 hrs in presence of 5 uM sorafenib by immunoblot analysis relative to control; format: functional
[9] = Inhibition of sorafenib-induced autophagic flux in human Huh-7 cells assessed as fold increase in p62 protein expression at 20 uM incubated for 24 hrs in presence of 10 uM sorafenib by immunoblot analysis relative to control; format: functional
SK-HEP1 [10] = experiment: Cytotoxicity against human SK-HEP1 cells assessed as reduction in cell viability incubated for 72 hrs by CellTiter-Glo luminescent assay; format: functional, cell-based; conditions: SK-HEP1, 72 h
Huh-7 [11] = experiment: Inhibition of sorafenib-induced autophagic flux in human Huh-7 cells overexpressing TurboRFP-EGFP-LC3B assessed as increase in yellow dot puncta formation at 10 uM incubated for 24 hrs in presence of 5 uM sorafenib by immunofluorescence assay; format: functional, cell-based
Huh-7 [12] = experiment: Inhibition of autophagy in human Huh-7 cells overexpressing TurboRFP-EGFP-LC3B assessed as increase in yellow dot puncta formation at 10 uM incubated for 24 hrs by immunofluorescence assay; format: functional, cell-based
[13] = target: T2, Cysteine protease ATG4B (Homo sapiens); experiment: (§1) Inhibition of N-terminal His6/SUMO-tagged full length human ATG4B expressed in Escherichia coli BL21 (DE3) cells using His-LC3B-GST as substrate preincubated with enzyme for 1 hr followed by substrate addition for 1 hr by HTRF assay; conditions: time 2.0 hrs
Cysteine protease ATG4B [14] = target: T1, Cysteine protease ATG4B; experiment: as §1
IMR-90 = experiment: Cytotoxicity against human IMR-90 cells; format: toxicity, cell-based
SK-HEP1 [15] = experiment: Inhibition of colony formation in human SK-HEP1 cells at 10 uM incubated for 14 days in presence of sorafenib by crystal violet staining based analysis; format: functional, cell-based; conditions: time 14.0 day
Huh-7 [16] = experiment: Inhibition of autophagy in human Huh-7 cells overexpressing TurboRFP-EGFP-LC3B assessed as increase in number of red dots at 10 uM incubated for 24 hrs by immunofluorescence assay; format: functional, cell-based
[17] = Inhibition of sorafenib-induced autophagic flux in human Huh-7 cells assessed as fold increase in LC3B-II protein expression at 20 uM incubated for 24 hrs in presence of 10 uM sorafenib by immunoblot analysis relative to control; format: functional
[18] = Inhibition of sorafenib-induced autophagic flux in human Huh-7 cells assessed as fold increase in LC3B-II protein expression at 20 uM incubated for 24 hrs in presence of 5 uM sorafenib by immunoblot analysis relative to control; format: functional
Huh-7 [19] = experiment: Inhibition of autophagy in human Huh-7 cells assessed as fold increase in p62 protein expression at 20 uM incubated for 24 hrs by immunoblot analysis relative to control; format: functional
Huh-7 [20] = experiment: Inhibition of colony formation in human Huh-7 cells at 10 uM incubated for 14 days in presence of sorafenib by crystal violet staining based analysis; format: functional, cell-based; conditions: time 14.0 day
SK-HEP1 [21] = experiment: Potentiation of sorafenib-induced antiproliferative activity against human SK-HEP1 cells assessed as inhibition of cell proliferation at 20 uM incubated for 5 days in presence of sorafenib by CTG assay; format: functional, cell-based; conditions: time 5.0 day
MRC5 = experiment: Cytotoxicity against human MRC5 cells; format: toxicity, cell-based
Huh-7 [22] = experiment: Inhibition of autophagy in human Huh-7 cells assessed as fold increase in LC3B-II protein expression at 20 uM incubated for 24 hrs by immunoblot analysis relative to control; format: functional
Huh-7 [23] = experiment: Cytotoxicity against human Huh-7 cells assessed as reduction in cell viability incubated for 72 hrs by CellTiter-Glo luminescent assay; format: functional, cell-based; conditions: Huh-7, 72 h
SK-HEP1 [24] = experiment: Inhibition of autophagy in human SK-HEP1 cells assessed as fold increase in p62 protein expression at 20 uM incubated for 24 hrs by immunoblot analysis relative to control; format: functional
Huh-7 [25] = experiment: Inhibition of autophagy in human Huh-7 cells assessed as fold increase in LC3B-II protein expression at 10 uM incubated for 24 hrs by immunoblot analysis relative to control; format: functional
[26] = Inhibition of sorafenib-induced autophagic flux in human Huh-7 cells assessed as fold increase in p62 protein expression at 20 uM incubated for 24 hrs in presence of 5 uM sorafenib by immunoblot analysis relative to control; format: functional
SK-HEP1 [27] = experiment: Inhibition of autophagy in human SK-HEP1 cells assessed as fold increase in LC3B-II protein expression at 10 uM incubated for 24 hrs by immunoblot analysis relative to control; format: functional
[28] = Inhibition of sorafenib-induced autophagic flux in human SK-HEP1 cells assessed as fold increase in LC3B-II protein expression at 20 uM incubated for 24 hrs in presence of 5 uM sorafenib by immunoblot analysis relative to control; format: functional
SK-HEP1 [29] = experiment: Inhibition of autophagy in human SK-HEP1 cells assessed as fold increase in p62 protein expression at 10 uM incubated for 24 hrs by immunoblot analysis relative to control; format: functional
Huh-7 [30] = experiment: Inhibition of autophagy in human Huh-7 cells assessed as fold increase in p62 protein expression at 10 uM incubated for 24 hrs by immunoblot analysis relative to control; format: functional
[31] = target: T2, Cysteine protease ATG4B (Homo sapiens); experiment: Inhibition of N-terminal His6/SUMO-tagged full length human ATG4B expressed in Escherichia coli BL21 (DE3) cells assessed as reduction in substrate cleavage using His-LC3B-GST as substrate preincubated with enzyme for 1 hr followed by substrate addition for 30 mins by gel electrophoresis analysis; conditions: dose 3.125-50 µM, time 1.5 hrs
SK-HEP1 [32] = experiment: Inhibition of autophagy in human SK-HEP1 cells assessed as reduction in LC3B-I protein expression at 10 to 20 uM incubated for 24 hrs by immunoblot analysis; format: functional, cell-based; conditions: dose 10-20 µM

S=C(Nc1ccc2nc(-c3ccco3)c(-c3ccco3)nc2c1)N1CCCCCC1
Kd (Cysteine protease ATG4B [1]): 14.3 µM
Activity [2]: Active
fold change (FC) [3]: 0.82
Activity (Huh-7 [4]): Active
fold change (FC) [5]: 0.66
inhibition (Huh-7 [6]): Active
fold change (FC) (SK-HEP1 [7]): 1.6
fold change (FC) [8]: 0.85
fold change (FC) [9]: 0.84
IC50 (SK-HEP1 [10]): 23.6 µM
inhibition (Huh-7 [11]): Active
inhibition (Huh-7 [12]): Active
inhibition [13]: Dose-Dependent Effect
IC50 (Cysteine protease ATG4B [14]): 3.08 µM
Activity (IMR-90): Non-Toxic
inhibition (SK-HEP1 [15]): Active
inhibition (Huh-7 [16]): Active
fold change (FC) [17]: 0.64
fold change (FC) [18]: 0.76
fold change (FC) (Huh-7 [19]): 2.8
inhibition (Huh-7 [20]): Active
Activity (SK-HEP1 [21]): Active
Activity (MRC5): Non-Toxic
fold change (FC) (Huh-7 [22]): 1.6
IC50 (Huh-7 [23]): 25.3 µM
fold change (FC) (SK-HEP1 [24]): 2.4
fold change (FC) (Huh-7 [25]): 1.5
fold change (FC) [26]: 1.1
fold change (FC) (SK-HEP1 [27]): 1.46
fold change (FC) [28]: 0.82
fold change (FC) (SK-HEP1 [29]): 2.1
fold change (FC) (Huh-7 [30]): 2.3
inhibition [31]: Dose-Dependent Effect
inhibition (SK-HEP1 [32]): Active
